Several values for one entry are separate records, joined by “and”; a condition that tells them apart may be missing. Identical values can stand only once.
Assays:
Assay type in all cases: cell-based
[1] = system: normal human epidermal keratinocytes (NHEKs); assay: Neosynthesis of sulfated GAGs by NHEKs, [35S]-sulfate incorporation; details: for % Control / Mean (cpm) / [35S]-Sulfate (cpm): sulfated GAGs, NHEKs; for [35S]-Sulfate (cpm): single replicates
Description: (§1) The effects of the compounds on the neosynthesis of total and sulfated glycosaminoglycans (GAGs) were studied on two cell models, normal human epidermal keratinocytes (NHEKs) and normal human dermal fibroblasts (NHDFs). The effects of these compounds were evaluated by measuring: • the incorporation of [3H]-glucosamine into the total GAGs neosynthesized by NHEKs and by NHDFs, • the incorporation of [35S]-sulfate into the sulfated GAGs neosynthesized by NHEKs and by NHDFs.
(§2) The keratinocytes were seeded into wells and cultured in culture medium for 24 hours. The medium was then replaced with culture medium containing or not containing (control) the compounds to be tested or the reference (4-nitrophenyl β-D-xylopyranoside at 300 μM), then the cells were incubated for 72 hours with the addition of the [3H]-glucosamine radioactive label (total GAGs) or of the [35S]-sulfate radioactive label (sulfated GAGs) for the final 24 hours of incubation.
(§3) At the end of the incubation, the glycosaminoglycans were extracted from the cells with a chaotropic buffer. The GAGs were then purified by ion exchange chromatography: adsorption of the anionic molecules on Q-Sepharose beads and desorption of the molecules of low or medium anionic nature, with a suitable solution.
(§4) The radioactivity incorporated into the molecules left on the support (GAGs, predominantly) was measured by liquid scintillation.
(§5) All the experimental conditions were performed in n=3.
(§6) The inter-group comparisons were performed using Student's non-paired two-sided t-test. The statistical analyses can be interpreted if n≥5; however, for n<5, the data calculated are provided only by way of indication.

[2] = system: normal human epidermal keratinocytes (NHEKs); assay: Neosynthesis of total GAGs by NHEKs, [3H]-glucosamine incorporation; details: for % Control / Mean (cpm) / [3H]-glucosamine (cpm): total GAGs, NHEKs; for [3H]-glucosamine (cpm): single replicates
Description: as §1, §2, §3, §4, §5, §6

[3] = system: normal human dermal fibroblasts (NHDFs); assay: Neosynthesis of total GAGs by NHDFs, [3H]-glucosamine incorporation; details: for % Control / Mean (cpm) / [3H]-glucosamine (cpm): total GAGs, NHDFs; for [3H]-glucosamine (cpm): single replicates
Description: as §1
(§7) The fibroblasts were seeded into wells and cultured in culture medium for 24 hours. The medium was then replaced with culture medium containing or not containing (controt) the compounds to be tested or the reference (TGF-β at 10 ng/ml), then the cells were incubated for 72 hours with the addition of the [35S]-sulfate radioactive label (sulfated GAGs) or of the [3H]-glucosamine radioactive label (total GAGs) for the final 24 hours of incubation.
as §3, §4, §5, §6

[4] = system: normal human dermal fibroblasts (NHDFs); assay: Neosynthesis of sulfated GAGs by NHDFs, [35S]-sulfate incorporation; details: sulfated GAGs, NHDFs; for [35S]-Sulfate (cpm): single replicates
Description: as §1, §7, §3, §4, §5, §6

In the case of O=[N+]([O-])c1ccc(O[C@@H]2OC[C@@H](O)[C@H](O)[C@H]2O)cc1 [4-Nitrophenyl β-D-xylopyranoside, 4-nitrophenyl β-D-xylopyranoside], the “% Control” value ([1]; campaign 1, 300 μM) is reported as 922%, the “Mean (cpm)” value ([1]; campaign 1, 300 μM) is reported as 62566 cpm and the “[35S]-Sulfate (cpm)” value ([1]; campaign 1, 300 μM) is reported as 60267 cpm and 63396 cpm and 64036 cpm. The “% Control” value ([1]; campaign 2, 300 μM) was 1029%, the “Mean (cpm)” value ([1]; campaign 2, 300 μM) was 54615 cpm and the “[35S]-Sulfate (cpm)” value ([1]; campaign 2, 300 μM, listed as 4-Nitrophenyl B-D-xylopyranoside) was 54440 cpm and 52841 cpm and 56564 cpm. The “% Control” value ([2]; campaign 1, 300 μM) was 206%, the “Mean (cpm)” value ([2]; campaign 1, 300 μM) was 26611 cpm and the “[3H]-glucosamine (cpm)” value ([2]; campaign 1, 300 μM) was 26835 cpm and 26438 cpm and 26560 cpm. For the same molecule, the “% Control” value ([2]; campaign 2, 300 μM) was 243%, the “Mean (cpm)” value ([2]; campaign 2, 300 μM) was 20694 cpm and the “[3H]-glucosamine (cpm)” value ([2]; campaign 2, 300 μM) was 22239 cpm and 20953 cpm and 18891 cpm.
With Oc1cc(O)cc(/C=C/c2ccc(O[C@@H]3OC[C@@H](O)[C@H](O)[C@H]3O)cc2)c1 [Compound 2a, 4-[(E)-2-(3,5-dihydroxy-phenyl)ethenyl]phenyl β-D-xylopyranoside] the “% Control” value ([1]; campaign 2, 1 μM) was 114%, the “Mean (cpm)” value ([1]; campaign 2, 1 μM) was 6073 cpm and the “[35S]-Sulfate (cpm)” value ([1]; campaign 2, 1 μM) was 5974 cpm and 6365 cpm and 5879 cpm. For the same molecule, the “% Control” value ([1]; campaign 2, 10 μM) was 240%, the “Mean (cpm)” value ([1]; campaign 2, 10 μM) was 12748 cpm and the “[35S]-Sulfate (cpm)” value ([1]; campaign 2, 10 μM) was 11209 cpm and 13332 cpm and 13703 cpm. For the same molecule, the “effect on the neosynthesis of the sulfated GAGs by the NHEKs (in words)” value ([1]; tested at 1 and 10 μM) was “stimulated in a concentration-dependent manner”, the “effect on the neosynthesis of the total GAGs by the NHDFs (in words)” value ([3]; tested at 10 and 100 μM) was “stimulated in a concentration-dependent manner” and the “% Control” value ([3]; campaign 2, 10 μM) was 104%. For the same molecule, the “Mean (cpm)” value ([3]; campaign 2, 10 μM) was 1624 cpm, the “[3H]-glucosamine (cpm)” value ([3]; campaign 2, 10 μM) was 1758 cpm and 1479 cpm and 1636 cpm and the “% Control” value ([3]; campaign 2, 100 μM) was 126%. For the same molecule, the “Mean (cpm)” value ([3]; campaign 2, 100 μM) was 1973 cpm, the “[3H]-glucosamine (cpm)” value ([3]; campaign 2, 100 μM) was 1958 cpm and 1959 cpm and 2003 cpm and the “% Control” value ([4]; campaign 2, 10 μM) was 141%. The “Mean (cpm)” value ([4]; campaign 2, 10 μM) was 795 cpm, the “[35S]-Sulfate (cpm)” value ([4]; campaign 2, 10 μM) was 765 cpm and 835 cpm and 786 cpm and the “% Control” value ([4]; campaign 2, 100 μM) was 533%. The “Mean (cpm)” value ([4]; campaign 2, 100 μM) was 3015 cpm, the “[35S]-Sulfate (cpm)” value ([4]; campaign 2, 100 μM) was 2858 cpm and 3230 cpm and 2958 cpm and the “effect on the neosynthesis of the total GAGs by the NHEKs (in words)” value ([2]; tested at 1 and 10 μM) was “stimulated in a concentration-dependent manner”. For the same molecule, the “% Control” value ([2]; campaign 2, 1 μM) was 120%, the “Mean (cpm)” value ([2]; campaign 2, 1 μM) was 10215 cpm and the “[3H]-glucosamine (cpm)” value ([2]; campaign 2, 1 μM) was 9472 cpm and 10133 cpm and 11041 cpm. For the same molecule, the “% Control” value ([2]; campaign 2, 10 μM) was 151%, the “Mean (cpm)” value ([2]; campaign 2, 10 μM) was 12844 cpm and the “[3H]-glucosamine (cpm)” value ([2]; campaign 2, 10 μM) was 11913 cpm and 12452 cpm and 14167 cpm.

— US11654096B2 (L'OREAL, priority 2017, dated 2023)
